The conditions of data set [1]: cited from earlier work; for absolute change in nocturnal BP: day 90, patients with nocturnal hypertension, ref Ruilope et al. 2016.
A further data set deals with DOCA/salt rats. More on the design: method as in Kolkhof et al. 2014. The note with it: ref Kolkhof et al. 2014, cited from earlier work.
For data set [2] the following is noted: quantitative whole-body autoradiography, [14C]-labeled, healthy rats; ref Kolkhof et al. 2014; cited from earlier work.
Data set [3] relates to MR vs all other steroid hormone receptors. The note with it: ref Bärfacker et al. 2012, Pitt et al. 2012; cited from earlier work.
The subject of another data set is S810L MR mutant. On the set-up: method as in Geller et al. 2000, Amazit et al. 2015. Particulars: ref Geller et al. 2000, Amazit et al. 2015; cited from earlier work.
The test system of the next data set is MR. On the set-up: method as in Amazit et al. 2015. Particulars: ref Amazit et al. 2015; cited from earlier work.
Details of data set [4]: method as in Pitt et al. 2013. The note with it: ref Pitt et al. 2013, cited from earlier work.
For data set [5], the system named is SRC-1 recruitment at the promoter of the SCNN1A gene. On the set-up: method as in Amazit et al. 2015. Particulars: ref Amazit et al. 2015; cited from earlier work.
Data set [6] has as its target T1, ligand binding domain of MR (Homo sapiens, UniProt P08235).
T1 construct: expressed in transfected cells; host or cells: CHO-K1
T1 sequence (P08235 726-964 limits assumed): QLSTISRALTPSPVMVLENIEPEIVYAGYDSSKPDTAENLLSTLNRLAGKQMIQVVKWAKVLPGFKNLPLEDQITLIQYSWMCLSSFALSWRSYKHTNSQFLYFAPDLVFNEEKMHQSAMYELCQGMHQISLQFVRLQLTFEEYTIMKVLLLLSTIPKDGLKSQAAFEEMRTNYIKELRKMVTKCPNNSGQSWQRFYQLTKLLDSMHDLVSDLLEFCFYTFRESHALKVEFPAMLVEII
Description: functional cell-based MR transactivation assay in CHO-K1 cells. Particulars: duplicate.

Details of data set [7]: method as in Filippatos et al. 2016. The note with it: 1066 HFrEF patients; ref Filippatos et al. 2016; cited from earlier work.
The subject of data set [8] is mouse model of pressure overload-induced HF. More on the design: method as in Grune et al. 2016. Particulars: ref Grune et al. 2016; cited from earlier work.

Read-outs that look alike come from different tables or passages of the source.

For `CCOc1ncc(C)c2c1[C@H](c1ccc(C#N)cc1OC)C(C(N)=O)=C(C)N2` [finerenone], the “absolute change in nocturnal BP” value is given as −9.5 mmHg in [1] (10 mg dose group) and −12.0 mmHg in [1] (20 mg dose group). Besides, in data set [1] (7.5, 10, 15 and 20 mg, 90 days, on top of SoC, ref Bakris et al. 2015), the albuminuria result was “dose-dependent, significant reductions”. Besides, the “systolic blood pressure vs 100 mg/kg eplerenone” value in the data set with DOCA/salt rats (10 mg/kg finerenone, head-to-head) was “significantly lower”. The “reduction of cardiac hypertrophy, pro-BNP and proteinuria vs eplerenone” value with DOCA/salt rats (equinatriuretic doses) is “more efficiently than eplerenone”. The “distribution into cardiac and kidney tissues” value in data set [2] is on record as “balanced distribution”. In addition, in data set [3], the “selectivity toward MR” value is “at least 500 fold”. The “effect on S810L MR mutant” value with S810L MR mutant is “block”. Besides, the “delay of aldosterone-induced nuclear translocation of MR” value with MR is given as “more efficiently than spironolactone”. For the same compound, in [4] (5 and 10 mg OD vs spironolactone 25 or 50 mg/day), the “decrease of BNP, NT-pro-BNP and urinary albumin vs spironolactone” value was “at least as effective as spironolactone”. Besides, the “incidence of hyperkalemia vs spironolactone” value in [4] (5 and 10 mg OD) is given as “significantly lower incidence”. The “increases in serum potassium vs spironolactone” value in data set [4] (5 and 10 mg OD) is recorded as “significantly lower increases”. In data set [5], the “mode of action on SRC-1 recruitment” value was “inverse agonist”. For the same compound, the IC50 (commonly the concentration needed to halve the response being measured) worked out at 46 nM in data set [6] (agonist DOCA 10 nM, read-out: IC50 vs DOCA as agonist); 24 nM in [6] (agonist corticosterone 1 nM, read-out: IC50 vs corticosterone as agonist); 5 nM in data set [6] (agonist cortisol 10 nM, read-out: IC50 vs cortisol as agonist). Besides, the “outcome including death and CV hospitalization vs eplerenone” value in data set [7] was “nominally improved outcome”. In data set [8], the “prevention of myocardial hypertrophy vs eplerenone” value is listed as “more pronounced prevention of myocardial hypertrophy”.

(Values after article PMC5488394, “30 YEARS OF THE MINERALOCORTICOID RECEPTOR: Mineralocorticoid receptor antagonists: 60 years of research and development” (The Journal of Endocrinology, 2017).)
